The values that follow are results of earlier work, collected in patent US20190015339A1, “PHARMACEUTICAL COMBINATION FORMULATION” (SHIN POONG PHARMACEUTICAL CO., LTD., priority 2015, published 2019).

Where two headings read alike, the source gives them in different places.

`CCOc1nc2cccc(C(=O)OC(C)OC(=O)OC3CCCCC3)c2n1Cc1ccc(-c2ccccc2-c2nnn[nH]2)cc1` (centres unmarked) [candesartan cilexetil]: the absolute bioavailability entry is, setting by setting: (used as a solution) “about 40%”; (used as a tablet formulation) “about 15%”.
